# Patent publication US20130303575A1, “ADMINISTRATION OF AN INHIBITOR OF HDAC” (priority 2007, published 2013)
# Entries after “also recorded” stand apart in the source; their conditions may differ.
# Tests used:
# [1] = system: advanced acute leukemias; experiment: Clinical outcome and biologic effects in adults with advanced acute leukemias (Example 3); format: in vivo, human
# Method: To assess response to therapy, a BM aspiration was performed weekly for 4 weeks during the first cycle, at the end of each subsequent cycle, or at any time leukemia regrowth was suspected. Complete response (CR) required a normal BM aspirate with absence of identifiable leukemia, absolute neutrophils count (ANC) of 1×10^9/L or higher, platelet count of 100×10^9/L or higher, and absence of blasts in peripheral blood (PB). […] Progressive disease (PD) was defined as >50% increase in marrow or PB blasts from baseline or development of extramedullary leukemia.
# [2] = system: advanced solid tumors or lymphomas; experiment: Response evaluation in patients with advanced solid tumors or lymphoma (Example 2); format: in vivo, human
# Method: At study entry, history, physical examination, laboratory studies (CBC, electrolytes, creatinine, blood urea nitrogen, total and direct bilirubin, ALT, AST, alkaline phosphatase, uric acid, prothrombin time, partial thromboplastin time, and urinalysis), computed tomography scan and chest x-ray and ECG were performed. Clinical assessments, including a physical examination and adverse event evaluation, were conducted at each follow-up. Adverse events were graded by the NCI Common Toxicity Criteria (version 2.0). Computed tomography scans and staging was performed every 6 weeks for the q14-day schedule. Disease-specific staging techniques, such as bone marrow aspirate and biopsy, flow cytometry, cutaneous lesion photography, or bone scan were used as indicated. Response evaluations used the Response Evaluation Criteria in Solid Tumors and the Cheson criteria for lymphoma. Multiple-gated acquisition (MUGA) scans were obtained on the q14-day schedule at base line, before course 2 and at each restaging. Laboratory studies (CBC with differential, chemistry 20, prothrombin time and […] thromboplastin time) were performed on days 1, 3, 5, 7 and repeated weakly.
smiles,measurement,setting,value
"Nc1ccccc1NC(=O)c1ccc(CNC(=O)OCc2cccnc2)cc1 [SNDX-275, N-(2-aminophenyl) 4-[N-(pyrid-3-yl)methyloxycarbonylaminomethyl]benzamide]",CR or PR by standard criteria,[1]; 34 patients evaluable for response,No patients achieved CR or PR
same,patients with a 50% reduction in WBC counts,[1]; Fifteen patients,38.5%
same,Type of Response,"[1]; patient 2, 4 mg/m^2 × 2/4 weeks, 4 cycles, bone marrow blast response","Bone marrow PR (>50% → 12% blasts, cycle 1)"
same,Type of Response,"[1]; patient 2, 4 mg/m^2 × 2/4 weeks, 4 cycles, myeloid differentiation by ANC",Differentiation in myeloid lineage (ANC 504/μL →
same,ANCmax,"[1]; patient 2, 4 mg/m^2 × 2/4 weeks, cycle 1, from ANC 504/μL","ANCmax 1410/μL, cycle 1)"
same,Type of Response,"[1]; patient 5, 4 mg/m^2 × 2/4 weeks (cycle 1), 6 mg/m^2 × 2/4 weeks (cycle 2 and 3), 3 cycles",Stable disease
same,Type of Response,"[1]; patient 11, 8 mg/m^2 × 2/4 weeks, 1 cycle",Decreased transfusion requirements
same,Type of Response,"[1]; patient 14, 8 mg/m^2 × 4/6 weeks, 1 cycle",Resolution of bone pain
same,Type of Response,"[1]; patient 15, 8 mg/m^2 × 4/6 weeks, 1.75 cycles, bone marrow blast response","Bone marrow PR (35% → 14% blasts, cycle 1)"
same,Type of Response,"[1]; patient 15, 8 mg/m^2 × 4/6 weeks, 1.75 cycles, myeloid differentiation by ANC",Differentiation in myeloid lineage (ANC 288/μL →
same,ANCmax,"[1]; patient 15, 8 mg/m^2 × 4/6 weeks, cycle 1, from ANC 288/μL",2052 µL⁻¹
same,ANCmax,"[1]; patient 15, 8 mg/m^2 × 4/6 weeks, cycle 2",5546 µL⁻¹
same,Type of Response,"[1]; patient 18, 8 mg/m^2 × 4/6 weeks, 1.25 cycles",Differentiation in myeloid lineage (ANC 124/μL →
same,ANCmax,"[1]; patient 18, 8 mg/m^2 × 4/6 weeks, cycle 1, from ANC 124/μL","ANCmax 680/μL, cycle 1)"
same,Type of Response,"[1]; patient 20, 8 mg/m^2 × 4/6 weeks, 1 cycle",Decreased transfusion requirements
same,Type of Response,"[1]; patient 24, 8 mg/m^2 × 4/6 weeks, 4.75 cycles, bone marrow blast response","Bone marrow PR (30% → 20% blasts, cycle 1)"
same,Type of Response,"[1]; patient 24, 8 mg/m^2 × 4/6 weeks, 4.75 cycles, myeloid differentiation by ANC",Differentiation in myeloid lineage (ANC 520/μL →
same,ANCmax,"[1]; patient 24, 8 mg/m^2 × 4/6 weeks, cycle 1, from ANC 520/μL",3637 µL⁻¹
same,ANCmax,"[1]; patient 24, 8 mg/m^2 × 4/6 weeks, cycle 3",4456 µL⁻¹
same,Type of Response,"[1]; patient 27, 8 mg/m^2 × 4/6 weeks, 5 cycles",Stable disease; also recorded: Peripheral blood 21% → 0% blasts
same,Type of Response,"[1]; patient 33, 10 mg/m^2 × 4/6 weeks, 2 cycles",Resolution of extramedullary chloroma
same,Type of Response,"[1]; patient 34, 10 mg/m^2 × 4/6 weeks, 2 cycles, bone marrow blast response","Bone marrow CR (54% → 3% blasts, cycle 1)"
same,Type of Response,"[1]; patient 34, 10 mg/m^2 × 4/6 weeks, 2 cycles, myeloid differentiation by ANC",Differentiation in myeloid lineage (ANC 103/μL →
same,ANCmax,"[1]; patient 34, 10 mg/m^2 × 4/6 weeks, cycle 1, from ANC 103/μL",854 µL⁻¹
same,ANCmax,"[1]; patient 34, 10 mg/m^2 × 4/6 weeks, cycle 2",2929 µL⁻¹
same,median time to 50% reduction in WBC counts,[1]; range 3-28,6 days
same,patients remaining on treatment for greater than 3 months,"[2]; human, in vivo",Ten of 29
same,objective responses,[2]; q14-day schedule,not observed
same,patients with stable disease,[2]; q14-day schedule,15
